Laboratory results: PubChem BioAssay (NCI)
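The compound was tested at five concentrations on cells cultured in 96-well plates, with a 48-hour exposure period. TGI marks complete inhibition of growth.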

Assays:
Assay in all cases: DTP human tumour cell line panel, 48 h
SK-OV-3 ovarian = tested on: SK-OV-3 ovarian
MALME-3M melanoma = tested on: MALME-3M melanoma
M14 melanoma = tested on: M14 melanoma
COLO 205 colon = tested on: COLO 205 colon
SF-295 CNS = tested on: SF-295 CNS
MCF7 breast = tested on: MCF7 breast
NCI-H23 lung = tested on: NCI-H23 lung
SK-MEL-28 melanoma = tested on: SK-MEL-28 melanoma
SW-620 colon = tested on: SW-620 colon
IGROV1 ovarian = tested on: IGROV1 ovarian
MDA-N = tested on: MDA-N
UO-31 renal = tested on: UO-31 renal
786-0 renal = tested on: 786-0 renal
OVCAR-3 ovarian = tested on: OVCAR-3 ovarian
CCRF-CEM leukemia = tested on: CCRF-CEM leukemia
OVCAR-5 ovarian = tested on: OVCAR-5 ovarian
OVCAR-8 ovarian = tested on: OVCAR-8 ovarian
UACC-62 melanoma = tested on: UACC-62 melanoma
NCI-H226 lung = tested on: NCI-H226 lung
SNB-75 CNS = tested on: SNB-75 CNS

Structure (SMILES) | TGI (SK-OV-3 ovarian) | TGI (MALME-3M melanoma) | TGI (M14 melanoma) | TGI (COLO 205 colon) | TGI (SF-295 CNS) | TGI (MCF7 breast) | TGI (NCI-H23 lung) | TGI (SK-MEL-28 melanoma) | TGI (SW-620 colon) | TGI (IGROV1 ovarian) | TGI (MDA-N) | TGI (UO-31 renal) | TGI (786-0 renal) | TGI (OVCAR-3 ovarian) | TGI (CCRF-CEM leukemia) | TGI (OVCAR-5 ovarian) | TGI (OVCAR-8 ovarian) | TGI (UACC-62 melanoma) | TGI (NCI-H226 lung) | TGI (SNB-75 CNS)
C=CCCC1(CC(Sc2ccccc2)P(=O)(c2ccccc2)c2ccccc2)OCCO1 (stereo not given) | > 10 µM | > 10 µM | > 10 µM | > 10 µM | > 10 µM | > 10 µM | > 10 µM | > 10 µM | > 10 µM | > 10 µM | > 10 µM | > 10 µM | > 10 µM | > 10 µM | > 10 µM | > 10 µM | > 10 µM | > 10 µM | > 10 µM | 
COCc1nc2c(OC)c(-c3nc4nc(N5CCN(C)CC5)ccc4[nH]3)cc(OC)c2n1C | > 100 µM | 35.6 µM | 43.3 µM | 21.5 µM | 92.9 µM |  | > 100 µM | 56 µM | > 100 µM | > 100 µM | > 100 µM | 76.9 µM | > 100 µM | > 100 µM | 45.6 µM | > 100 µM | > 100 µM | 41.1 µM | 87.4 µM | 64.9 µM
O=C(c1cccs1)N1CCc2ccccc2C1 | > 100 µM | > 100 µM | > 100 µM | > 100 µM | > 100 µM | > 100 µM | > 100 µM | > 100 µM | > 100 µM | > 100 µM | 92.3 µM | > 100 µM | > 100 µM | > 100 µM | > 100 µM | > 100 µM |  | > 100 µM | > 100 µM | 
CC1S/C(=N\N=C2/C(=O)Nc3ccc(Br)cc32)N(C2CCCCC2)C1=O (stereo not given) | 14 µM | 31.1 µM | 22.7 µM | 33.4 µM | 16.8 µM | 35 µM | 15.6 µM | 23.8 µM | 46.3 µM |  | > 100 µM | 3.08 µM | 6.01 µM | 10 µM | > 100 µM | > 100 µM |  | 6.75 µM | 18 µM | 
N#C/C(=C/NC(N)=S)C(N)=O | > 100 µM |  | > 100 µM | > 100 µM | > 100 µM | > 100 µM | > 100 µM | > 100 µM | > 100 µM | > 100 µM | > 100 µM | > 100 µM | > 100 µM | > 100 µM |  | > 100 µM | > 100 µM |  | > 100 µM | > 100 µM
CCOc1ncn(-c2ccc(NC(=S)NC3OC(CO)C(O)C(O)C3O)cc2)n1 (stereo not given) | > 100 µM |  | > 100 µM | > 100 µM | > 100 µM | > 100 µM | > 100 µM | > 100 µM | > 100 µM | > 100 µM | > 100 µM | > 100 µM | > 100 µM | > 100 µM | > 100 µM | > 100 µM | > 100 µM | > 100 µM |  | > 100 µM
Cc1ccc2c3c1O[C@H]1c4[nH]c5ccccc5c4C[C@@]4(O)[C@@H](C2)N(CC2CC2)CC[C@]314 | 31.5 µM | 28.4 µM | 32.4 µM | 30.8 µM | 31.1 µM | 31.5 µM | 39.5 µM | 36.4 µM | 25.4 µM | 32 µM | 30.5 µM | 26.8 µM | 27.1 µM | 27.5 µM | 24.6 µM | 35.1 µM | 34.3 µM | 30.1 µM | 30.5 µM | 
Nc1nc(-[n+]2ccc(-c3ccncc3)cc2)nc(Cl)c1Cl | > 100 µM | > 100 µM | > 100 µM | > 100 µM |  | 21.8 µM | 54.9 µM | > 100 µM | > 100 µM | 33.3 µM | > 100 µM | > 100 µM | 57.9 µM | 33.5 µM | 31.8 µM | > 100 µM |  | > 100 µM | > 100 µM | 
N#Cc1[nH]c(=O)n(-c2ccccc2)c1N | > 10 µM | > 10 µM | > 10 µM | > 10 µM | 3.72 µM |  | > 10 µM | > 10 µM | > 10 µM | > 10 µM | > 10 µM | > 10 µM | > 10 µM | > 10 µM | > 10 µM | > 10 µM | > 10 µM | > 10 µM | > 10 µM | > 10 µM
O=C(c1ccco1)N(C(=S)OCCOc1ccccc1)c1ccccc1 | 55.3 µM | 40 µM | 37.3 µM | 37.5 µM | 36.6 µM | 42.8 µM | 39.9 µM | 40.3 µM | 41.8 µM | 36.9 µM | 33.9 µM | 35.5 µM | 38.3 µM | 32.2 µM | 46.5 µM | 41.1 µM | 38.2 µM | 32.7 µM |  | 
Cc1ccc(S(=O)(=O)N/N=C2/CCCOC2)cc1 | > 100 µM | > 100 µM | > 100 µM | > 100 µM | > 100 µM | > 100 µM | > 100 µM | > 100 µM | > 100 µM | > 100 µM | > 100 µM | > 100 µM | > 100 µM | > 100 µM | > 100 µM | > 100 µM | > 100 µM | > 100 µM | > 100 µM | 
C[N+]1(C)CCc2cc(O)c(O)cc2C1Cc1ccc(O)c(O)c1 (stereo not given) | > 100 µM | 91.4 µM | > 100 µM | > 100 µM | > 100 µM | 43.3 µM | > 100 µM | > 100 µM | 76.7 µM | > 100 µM | 89.1 µM | > 100 µM | > 100 µM | > 100 µM |  | > 100 µM | > 100 µM | > 100 µM | > 100 µM | 
O=C1NC(=S)NC(=O)C1C(c1ccc(O)cc1)C1C(=O)NC(=S)NC1=O |  | > 100 µM | > 100 µM | > 100 µM | > 100 µM | > 100 µM | > 100 µM | > 100 µM | > 100 µM | > 100 µM | > 100 µM | > 100 µM | > 100 µM | > 100 µM | > 100 µM | > 100 µM | > 100 µM | > 100 µM | > 100 µM | 
CCOC(=O)C1C(=O)CC1(C)C (stereo not given) | > 10 µM | > 10 µM | > 10 µM | > 10 µM | > 10 µM | > 10 µM | > 10 µM | > 10 µM | > 10 µM | > 10 µM | > 10 µM | > 10 µM | > 10 µM | > 10 µM | > 10 µM | > 10 µM | > 10 µM | > 10 µM | > 10 µM | 
O=C(/C=C/c1ccc2ccccc2c1)NCc1ccc(C(=O)NCCc2ccccc2)cc1 | > 100 µM |  | > 100 µM | > 100 µM | > 100 µM | > 100 µM | > 100 µM | > 100 µM | > 100 µM |  | > 100 µM | > 100 µM | > 100 µM | > 100 µM | > 100 µM | > 100 µM | > 100 µM | > 100 µM | > 100 µM | > 100 µM
CC(=O)OC1C(Oc2c(C)cc3c(c2O)[C@@H](C)CC[C@@H]3[C@@H](C)CCC=C(C)C)OCC(O)C1O (stereo not given in full) | 38.1 µM |  | 30.9 µM | 30.7 µM | 35.3 µM | 42.5 µM | 34.3 µM |  | 33.8 µM | 37.9 µM | 36 µM | 32.2 µM | 32.8 µM | 29.8 µM | 66.9 µM | 30.6 µM | 47.4 µM | 34.9 µM | 40.6 µM | 
COC(=O)c1cc2c(cc1Cl)Sc1nnc(Nc3ccc(C)cc3)n1S2(=O)=O | 24.1 µM | 26.3 µM | 27.6 µM | 17.9 µM | 30.4 µM | 11.4 µM | 15.7 µM | 21.8 µM |  | 7.75 µM | 20.6 µM | 23.6 µM | 24.1 µM | 5.77 µM | 36.1 µM | 39.8 µM | 40.4 µM | 26 µM | 28.2 µM | 
CCCCC1Cc2ccccc2-c2nc3ccccc3n21 (stereo not given) | 37.5 µM |  | 36.3 µM |  | 30.8 µM | 32.9 µM | 32 µM | 31 µM | 33.9 µM | 32.9 µM | 29.2 µM | 36.1 µM | 61.9 µM | 30.3 µM |  | 31.4 µM | 34.9 µM |  | 39.5 µM | 
O=C(NC(Cc1ccccc1)(Cc1ccc(O)cn1)C(=O)O)c1ccccc1 (stereo not given) | > 100 µM | > 100 µM | > 100 µM | > 100 µM | > 100 µM |  | > 100 µM | > 100 µM | > 100 µM | > 100 µM | > 100 µM | > 100 µM | > 100 µM | > 100 µM | > 100 µM | > 100 µM | > 100 µM | > 100 µM | > 100 µM | > 100 µM
COC1=C(OC)C(=O)C(Cc2c(C)nc3sccn23)=C(C)C1=O | 26.8 µM | 31 µM | 36.6 µM | 26.8 µM | 30 µM | > 100 µM | 29.5 µM | 23.3 µM | 34.8 µM | 40.9 µM | 26 µM | 29.1 µM | 43.2 µM | 34.3 µM | 23.8 µM | 34.6 µM | 33.6 µM | 23.5 µM |  | 
